T/C data for 19 compounds are collected here from PubChem BioAssay AID330 (DTP/NCI, 2004).

This experiment has as its system P388 leukemia ip, CD2F1 mice, survival T/C. The experiment is described as follows: NCI In Vivo Anticancer Drug Screen. Data for tumor model P388 Leukemia (intraperitoneal) in CD2F1 (CDF1) mice. Particulars: endpoint: median survival time, higher = longer survival. Summed up:
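Mice carrying the transplanted tumor received test compound or vehicle. Survival was recorded in each group, and the value is the treated-group measurement divided by that of the vehicle-treated control group.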

Setting [1] is: dose: 12.5 mg/kg/injection, schedule: Q01DX009 (ip), vehicle: Klucel (hydroxypropylcellulose) (HPC).
Where [2] appears, read: dose: 25.0 mg/kg/injection, schedule: Q01DX009 (ip), vehicle: Klucel (hydroxypropylcellulose) (HPC).
The mark [3] stands for this setting: dose: 50.0 mg/kg/injection, schedule: Q01DX005 (ip), vehicle: saline with Tween-80.
[4] abbreviates: dose: 200.0 mg/kg/injection, schedule: Q01DX005 (ip), vehicle: saline with Tween-80.
The mark [5] stands for this setting: dose: 200.0 mg/kg/injection, schedule: Q01DX005 (ip), vehicle: Klucel (hydroxypropylcellulose) (HPC).
[6] abbreviates: dose: 60.0 mg/kg/injection, schedule: Q01DX005 (ip), vehicle: saline with Tween-80.
Where [7] appears, read: dose: 120.0 mg/kg/injection, schedule: Q01DX005 (ip), vehicle: saline with Tween-80.
The mark [8] stands for this setting: dose: 240.0 mg/kg/injection, schedule: Q01DX005 (ip), vehicle: saline with Tween-80.
The mark [9] stands for this setting: dose: 50.0 mg/kg/injection, schedule: Q01DX009 (ip), vehicle: saline with Tween-80.
Where [10] appears, read: dose: 100.0 mg/kg/injection, schedule: Q01DX009 (ip), vehicle: saline with Tween-80.
[11] abbreviates: dose: 200.0 mg/kg/injection, schedule: Q01DX009 (ip), vehicle: saline with Tween-80.
Where [12] appears, read: dose: 50.0 mg/kg/injection, schedule: Q04DX003 (ip), vehicle: saline with Tween-80.

“And” between values parts separate entries of the source, which are not always exact repeats. Equal values may be shown once. Toxic doses and inconclusive results are not listed.

As for `CC1c2c(cc(OC(=O)c3cccc(S(=O)(=O)F)c3)nc2OC(=O)c2cccc(S(=O)(=O)F)c2)C(=O)N1Cc1ccccc1` (stereo not drawn), the T/C reads like this: (dose: 6.25 mg/kg/injection, schedule: Q01DX009 (ip), vehicle: Klucel (hydroxypropylcellulose) (HPC)) 97 % of control; under setting [1], 88 % of control; under setting [2], 87 % of control.

On to `S=C(Nc1ccc(Br)cc1)SCc1ccco1`, for which the T/C runs as follows: (dose: 12.5 mg/kg/injection, schedule: Q01DX009 (ip), vehicle: saline) 106 % of control; (dose: 25.0 mg/kg/injection, schedule: Q01DX009 (ip), vehicle: saline) 106 % of control; (dose: 50.0 mg/kg/injection, schedule: Q01DX009 (ip), vehicle: saline) 100 % of control; (dose: 50.0 mg/kg/injection, schedule: Q01DX009 (ip), vehicle: suspension in saline) 104 % of control; (dose: 100.0 mg/kg/injection, schedule: Q01DX009 (ip), vehicle: suspension in saline) 93 % of control; (dose: 200.0 mg/kg/injection, schedule: Q01DX009 (ip), vehicle: suspension in saline) 111 % of control.

As to `CC(C)CCNO`, the T/C was 96 % of control under setting [3]; 100 % of control (dose: 100.0 mg/kg/injection, schedule: Q01DX005 (ip), vehicle: saline with Tween-80); 93 % of control under setting [4].

As for `O=C(O)CC(CC(=O)O)c1ccc2c(c1)OCO2`, the T/C (dose: 50.0 mg/kg/injection, schedule: Q01DX005 (ip), vehicle: Klucel (hydroxypropylcellulose) (HPC)) was 99 % of control; the T/C (dose: 100.0 mg/kg/injection, schedule: Q01DX005 (ip), vehicle: Klucel (hydroxypropylcellulose) (HPC)) was 109 % of control; the T/C under setting [5] was 99 % of control.

Turning to `N#Cc1c(-c2ccc(Br)cc2)c(-c2ccc(Br)cc2)n[nH]c1=O`, the T/C is, setting by setting: (dose: 100.0 mg/kg/injection, schedule: Q01DX001 (ip), vehicle: saline with Tween-80) 91 % of control; (dose: 200.0 mg/kg/injection, schedule: Q01DX001 (ip), vehicle: saline with Tween-80) 95 % of control; (dose: 400.0 mg/kg/injection, schedule: Q01DX001 (ip), vehicle: saline with Tween-80) 95 % of control.

With `CCOc1ccc(NS(=O)(=O)c2ccc(F)cc2)cc1`, the T/C runs as follows: under setting [6], 99 % of control; under setting [7], 88 % of control; under setting [8], 95 % of control.

For `CC(=O)Nc1nc(N)nc(NC(C)=O)c1N=O`, the T/C is 110 % of control under setting [9], 119 % of control under setting [10] and 117 % of control under setting [11].

Turning to `O=C(CCCCCCCCC(=O)NO)NO`, the T/C reads like this: under setting [6], 96 % of control; under setting [7], 100 % of control; under setting [8], 100 % of control.

For the compound `CCCCCCCCCCS(=O)CC(CO)NC(=O)/C=C/c1c(C)[nH]c(=O)[nH]c1=O` (stereo not drawn), the T/C was 107 % of control and 116 % of control (dose: 0.78 mg/kg/injection, schedule: Q01DX009 (ip), vehicle: other); 115 % of control (dose: 1.56 mg/kg/injection, schedule: Q01DX009 (ip), vehicle: other); 153 % of control (dose: 6.25 mg/kg/injection, schedule: Q01DX009 (ip), vehicle: other).

Take `CP1(=S)C=C(NC2CCCCC2)CC1` (stereo not drawn): the T/C is, setting by setting: under setting [1], 99 % of control; under setting [2], 107 % of control; (dose: 50.0 mg/kg/injection, schedule: Q01DX009 (ip), vehicle: Klucel (hydroxypropylcellulose) (HPC)) 110 % of control; (dose: 100.0 mg/kg/injection, schedule: Q01DX009 (ip), vehicle: Klucel (hydroxypropylcellulose) (HPC)) 92 % of control; (dose: 200.0 mg/kg/injection, schedule: Q01DX009 (ip), vehicle: Klucel (hydroxypropylcellulose) (HPC)) 95 % of control.

With `CCCn1c(CC)nc([N+](=O)[O-])c1Sc1ncnc2nc[nH]c12`, the T/C was 107 % of control (dose: 12.5 mg/kg/injection, schedule: Q01DX005 (ip), vehicle: Klucel (hydroxypropylcellulose) (HPC)); 123 % of control (dose: 25.0 mg/kg/injection, schedule: Q01DX005 (ip), vehicle: Klucel (hydroxypropylcellulose) (HPC)); 111 % of control under setting [5].

As for `O=C(O)/C=C/C(=O)OCCBr`, the T/C is 104 % of control under setting [9]; 120 % of control under setting [12]; 100 % of control under setting [10]; 120 % of control (dose: 100.0 mg/kg/injection, schedule: Q04DX003 (ip), vehicle: saline with Tween-80); 95 % of control under setting [11]; 100 % of control (dose: 200.0 mg/kg/injection, schedule: Q04DX003 (ip), vehicle: saline with Tween-80).

For `C/C1=C/C2=CC(C)C[C@@H]2C(=O)[C@]2(C)C(=O)CC(C)(C)[C@H]2CC1=O` (stereo partly drawn), the T/C is 100 % of control (dose: 0.13 mg/kg/injection, schedule: Q01DX009 (ip), vehicle: Klucel (hydroxypropylcellulose) (HPC)); 103 % of control (dose: 0.25 mg/kg/injection, schedule: Q01DX009 (ip), vehicle: Klucel (hydroxypropylcellulose) (HPC)); 99 % of control (dose: 0.25 mg/kg/injection, schedule: Q01DX009 (ip), vehicle: saline with Tween-80); 102 % of control (dose: 0.5 mg/kg/injection, schedule: Q01DX009 (ip), vehicle: Klucel (hydroxypropylcellulose) (HPC)); 108 % of control (dose: 0.5 mg/kg/injection, schedule: Q01DX009 (ip), vehicle: saline with Tween-80); 106 % of control (dose: 1.0 mg/kg/injection, schedule: Q01DX009 (ip), vehicle: Klucel (hydroxypropylcellulose) (HPC)). In addition, the T/C (dose: 1.0 mg/kg/injection, schedule: Q01DX009 (ip), vehicle: saline with Tween-80) was 99 % of control; the T/C (dose: 2.0 mg/kg/injection, schedule: Q01DX009 (ip), vehicle: saline with Tween-80) is 101 % of control; the T/C (dose: 125.0 micrograms/kg/injection, schedule: Q01DX009 (ip), vehicle: saline + alcohol) is 105 % of control; the T/C (dose: 250.0 micrograms/kg/injection, schedule: Q01DX009 (ip), vehicle: saline + alcohol) was 103 % of control; the T/C (dose: 500.0 micrograms/kg/injection, schedule: Q01DX009 (ip), vehicle: saline + alcohol) is 112 % of control; the T/C (dose: 1000.0 micrograms/kg/injection, schedule: Q01DX009 (ip), vehicle: saline + alcohol) is 107 % of control. In addition, the T/C (dose: 2000.0 micrograms/kg/injection, schedule: Q01DX009 (ip), vehicle: saline + alcohol) is 105 % of control.

Take `Cc1cnnc2ccccc12`: the T/C runs as follows: (dose: 12.5 mg/kg/injection, schedule: Q01DX009 (ip), vehicle: saline with Tween-80) 98 % of control; (dose: 25.0 mg/kg/injection, schedule: Q01DX009 (ip), vehicle: saline with Tween-80) 106 % of control; under setting [9], 106 % of control.

For the compound `COC(=O)CC1(C(=O)OC)C2=C(CCSC2)N2CCCC21` (stereo not drawn), the T/C (dose: 3.75 mg/kg/injection, schedule: Q01DX009 (ip), vehicle: Klucel (hydroxypropylcellulose) (HPC)) is 97 % of control; the T/C (dose: 7.5 mg/kg/injection, schedule: Q01DX009 (ip), vehicle: Klucel (hydroxypropylcellulose) (HPC)) is 97 % of control; the T/C (dose: 15.0 mg/kg/injection, schedule: Q01DX009 (ip), vehicle: Klucel (hydroxypropylcellulose) (HPC)) was 100 % of control; the T/C (dose: 30.0 mg/kg/injection, schedule: Q01DX009 (ip), vehicle: Klucel (hydroxypropylcellulose) (HPC)) was 100 % of control.

For the compound `CN(C)CCCNc1c2ccccc2nc2c1c(=O)n(C)c(=O)n2C`, the T/C is, setting by setting: (dose: 60.0 mg/kg/injection, schedule: Q01DX005 (ip), vehicle: saline) 101 % of control; (dose: 120.0 mg/kg/injection, schedule: Q01DX005 (ip), vehicle: saline) 107 % of control.

On to `O=C(Oc1ccc(C2c3cc(OC(=O)c4ccccc4)c(OC(=O)c4ccccc4)cc3CC3C(=O)OCC32)cc1OC(=O)c1ccccc1)c1ccccc1` (stereo not drawn), for which the T/C runs as follows: under setting [3], 88 % of control; under setting [4], 86 % of control.

Consider `NC(=O)NCP(=O)(CNC(N)=O)CNC(N)=O`, for which the T/C was 100 % of control (dose: 50.0 mg/kg/injection, schedule: Q01DX005 (ip), vehicle: saline); 97 % of control (dose: 100.0 mg/kg/injection, schedule: Q01DX005 (ip), vehicle: saline); 95 % of control (dose: 200.0 mg/kg/injection, schedule: Q01DX005 (ip), vehicle: saline).

As to `Cc1nc2c([N+](=O)[O-])c(N(C)C)c([N+](=O)[O-])cc2[nH]1`, the T/C is 96 % of control (dose: 25.0 mg/kg/injection, schedule: Q04DX003 (ip), vehicle: saline with Tween-80) and 87 % of control under setting [12].
